Legend:
chorismate lyase = molecular target: T1, chorismate lyase (Escherichia coli, UniProt P26602, C15S/C82S); assay: X-ray crystal structure; type: binding; settings: both cysteines changed to serine; product complex
T1 construct: gene ubiC; monomer, 164 residues
T1 sequence (P26602 2-165 C15S/C82S): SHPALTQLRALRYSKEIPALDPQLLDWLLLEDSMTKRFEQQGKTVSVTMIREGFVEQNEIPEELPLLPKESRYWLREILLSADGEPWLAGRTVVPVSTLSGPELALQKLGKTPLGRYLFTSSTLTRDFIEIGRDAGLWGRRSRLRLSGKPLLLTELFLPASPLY

[1] = molecular target: T2, catabolite gene activator protein (CAP) (Escherichia coli, UniProt P0ACJ8, A145T); assay: X-ray crystal structure, soak; type: binding; settings: crystals grown with cAMP soaked in 10 mM adenosine; bound in one subunit; text also prints the variant as Thr144Ala
T2 construct: gene crp; homodimer
T2 sequence (P0ACJ8 2-210 A145T): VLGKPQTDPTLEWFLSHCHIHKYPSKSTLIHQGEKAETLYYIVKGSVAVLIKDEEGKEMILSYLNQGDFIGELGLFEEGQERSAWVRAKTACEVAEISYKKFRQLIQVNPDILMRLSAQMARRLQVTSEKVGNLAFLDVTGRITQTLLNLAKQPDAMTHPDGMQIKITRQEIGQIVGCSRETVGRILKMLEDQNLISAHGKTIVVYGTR

SMILES	X-ray crystal structure (chorismate lyase)	X-ray crystal structure, soak [1]
O=C(O)c1ccc(O)cc1 [4-hydroxy benzoate]	the active double Cys-to-Ser variant complexed with product were determined	
Nc1ncnc2c1ncn2[C@@H]1O[C@H](CO)[C@@H](O)[C@H]1O [adenosine]		Adenosine was preferentially substituted for cAMP in only one of the two CAP subunits
